≈ marks a conversion by molar mass, not a printed value.
Legend:
[1] = system: E. coli AG100A; experiment: Broth microdilution MIC in CAMHB; assay type: cell-based; details: Escherichia coli, read-out: MIC E. coli AG100A
[2] = system: N. gonorrhoeae WHO M; experiment: Liquid broth MIC in Fastidious broth; details: Neisseria gonorrhoeae, read-out: Minimum Inhibitory Concentration (MIC), N. gonorrhoeae WHO M
[3] = system: E. coli AG100; experiment: microbe, parasite or virus in culture; assay type: cell-based; details: Escherichia coli, AG100, read-out: MIC E. coli AG100
[4] = target: T1, PBP3 from Pseudomonas aeruginosa (PAO1) (Pseudomonas aeruginosa, UniProt G3XD46); experiment: Bocillin-FL fluorescence polarization competition binding, P. aeruginosa PBP3; details: Binding affinity to P. aeruginosa PBP3; fluorescence polarization competition binding assay using Bocillin-FL; read-out: P. aeruginosa PBP3 Potency
T1 construct: made in house
Method in brief: (§1)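 Purified PBP was preincubated with inhibitor (E. coli PBP3 1.5 μM, 30 min; P. aeruginosa PBP3 0.75 μM, A. baumannii PBP3 0.2 μM and PBP1a 1 μM, 15 min), then Bocillin-FL (0.1 μM; 0.05 μM for PBP1a) added and FP read up to 60 min. EC50 = 50% loss of bound probe.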

[5] = system: K. pneumoniae 848844; experiment: microbe, parasite or virus in culture; assay type: cell-based; details: Klebsiella pneumoniae, 848844, read-out: MIC K. pneumoniae 848844
[6] = target: T2, PBP3 from Escherichia coli (K-12) (Escherichia coli, UniProt P0AD68); experiment: Bocillin-FL fluorescence polarization competition binding, E. coli PBP3
T2 construct: made in house
Method in brief: as §1

[7] = system: N. gonorrhoeae WHO Z; experiment: Liquid broth MIC in Fastidious broth; details: Neisseria gonorrhoeae, read-out: Minimum Inhibitory Concentration (MIC), N. gonorrhoeae WHO Z
[8] = system: P. aeruginosa ATCC 27853; experiment: microbe, parasite or virus in culture; assay type: cell-based; details: Pseudomonas aeruginosa, ATCC27853, read-out: MIC P. aeruginosa ATCC 27853
[9] = system: K. pneumoniae UMM; experiment: microbe, parasite or virus in culture; assay type: cell-based; details: Klebsiella pneumoniae, read-out: MIC K. pneumoniae UMM
[10] = system: E. coli D22; experiment: microbe, parasite or virus in culture; assay type: cell-based; details: Escherichia coli, D22, read-out: MIC E. coli D22
[11] = system: N. gonorrhoeae FA1090; experiment: Liquid broth MIC in Fastidious broth; details: Neisseria gonorrhoeae, FA1090, read-out: Minimum Inhibitory Concentration (MIC), N. gonorrhoeae FA 1090
Protocol: Additional antibacterial testing of the series was performed in 8 reference strains of N. gonorrhoeae (ATCC 49226, FA1090, MS 11, WHO G, WHO L, WHO M, WHO K, WHO X, WHO Z, WHO Q, CDC-0197). ATCC 49226, FA1090, MS11, WHO G, WHO L, and WHO M produce wild type or wild-type like PBP2. WHO K, WHO X, WHO Z, WHO Q, and CDC-0197 produce mosaic PBP2. Liquid broth-based assays were used for antibacterial testing of PBP inhibitors in Neisseria gonorrhoeae. Briefly, cryo-preserved bacterial cultures of clinical strains were streaked for isolation on Chocolate Agar (72 g/L (2×) GC Agar Base (BD #228950) and 2% (2×) Hemoglobin was autoclaved at 121° C. for 20 minutes to sterilize. Once cooled to ˜50° C. the 2×GC Agar Base and 2× Hemoglobin solutions are combined and 1% IsoVitaleX Enrichment (BD #211876) was added to the solution). Strains were incubated at 36° C. and 5% CO2 to allow growth of colonies, 24 hours before inoculum preparation. 2-fold serial dilutions of test compounds were conducted in a 96 well plate with a final volume of 75 μL per well at 2-fold the final desired concentration in Fastidious broth (Remel #R07664). For preparation of assay inoculum, a direct suspension was prepared by aseptically swabbing 10-15 colonies from agar plates into culture tubes containing 2 mL of fresh sterile saline. After the dilution plates were set up, direct suspensions were then diluted in a cuvette containing sterile saline and the optical density was measured at 600 nm. Inocula were diluted such that 75 μL of this culture in Fastidious broth results in a starting bacterial concentration of 5×10^5 CFU/mL when added to the dilution plates. The plates were incubated for ˜24 hours at 36° C. and 5% CO2.

[12] = system: N. gonorrhoeae MS11; experiment: Liquid broth MIC in Fastidious broth; details: Neisseria gonorrhoeae, MS11, read-out: Minimum Inhibitory Concentration (MIC), N. gonorrhoeae MS11
[13] = system: N. gonorrhoeae ATCC 49226; experiment: Liquid broth MIC in Fastidious broth; details: Neisseria gonorrhoeae, ATCC49226, read-out: Minimum Inhibitory Concentration (MIC), N. gonorrhoeae ATCC 49226

T2 sequence (P0AD68 1-577): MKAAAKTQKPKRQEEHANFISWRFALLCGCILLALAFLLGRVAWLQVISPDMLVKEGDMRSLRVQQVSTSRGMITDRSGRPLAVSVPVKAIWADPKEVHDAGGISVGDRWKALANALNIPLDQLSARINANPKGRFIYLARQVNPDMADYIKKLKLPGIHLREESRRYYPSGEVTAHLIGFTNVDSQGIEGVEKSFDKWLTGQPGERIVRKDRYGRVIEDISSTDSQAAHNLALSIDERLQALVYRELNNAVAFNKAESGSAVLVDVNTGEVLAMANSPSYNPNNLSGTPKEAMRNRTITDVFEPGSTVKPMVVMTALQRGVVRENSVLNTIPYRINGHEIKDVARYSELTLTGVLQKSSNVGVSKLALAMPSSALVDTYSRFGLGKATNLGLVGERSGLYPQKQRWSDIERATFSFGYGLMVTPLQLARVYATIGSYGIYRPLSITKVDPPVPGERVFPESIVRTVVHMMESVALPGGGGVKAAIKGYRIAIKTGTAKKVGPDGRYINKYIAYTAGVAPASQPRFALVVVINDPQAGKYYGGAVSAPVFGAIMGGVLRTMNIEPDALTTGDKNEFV
T1 sequence (G3XD46 whole entry): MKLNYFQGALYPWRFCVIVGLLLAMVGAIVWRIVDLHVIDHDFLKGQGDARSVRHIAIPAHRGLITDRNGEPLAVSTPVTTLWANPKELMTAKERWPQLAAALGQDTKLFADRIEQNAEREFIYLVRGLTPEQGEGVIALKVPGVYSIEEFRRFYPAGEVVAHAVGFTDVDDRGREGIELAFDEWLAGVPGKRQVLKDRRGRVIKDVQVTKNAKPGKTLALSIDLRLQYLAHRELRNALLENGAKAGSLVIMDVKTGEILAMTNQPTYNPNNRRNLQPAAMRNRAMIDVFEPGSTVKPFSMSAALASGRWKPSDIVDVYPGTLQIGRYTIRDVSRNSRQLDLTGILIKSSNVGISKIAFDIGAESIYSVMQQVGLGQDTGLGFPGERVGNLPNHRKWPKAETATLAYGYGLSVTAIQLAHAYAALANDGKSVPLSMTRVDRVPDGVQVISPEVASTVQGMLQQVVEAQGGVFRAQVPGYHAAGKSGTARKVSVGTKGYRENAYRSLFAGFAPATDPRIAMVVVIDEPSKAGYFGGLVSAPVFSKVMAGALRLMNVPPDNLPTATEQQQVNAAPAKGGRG

Row | SMILES | MIC [1] [µg/mL] | MIC [2] [µg/mL] | MIC [3] [µg/mL] | IC50 [4] [µM] | MIC [5] [µg/mL] | EC50 [6] [µM] | MIC [7] [µg/mL] | MIC [8] [µg/mL] | MIC [9] [µg/mL] | MIC [10] [µg/mL] | MIC [11] [µg/mL] | MIC [12] [µg/mL] | MIC [13] [µg/mL]
1 | O=C1CC[C@@H](C(=O)NC(C(=O)N[C@H]2Cc3cccc(C(=O)O)c3OB2O)c2ccc(P(=O)(O)O)cc2)N1 (stereo partly drawn) [Example 64, (3R)-2-hydroxy-3-(2-((S)-5-oxopyrrolidine-2-carboxamido)-2-(4-phosphonophenyl)acetamido)-3,4-dihydro-2H-benzo[e][1,2]oxaborinine-8-carboxylic acid] | > 128 | 1 to 2 (≈ 1.88 to 3.76 µM) | > 128 | 50 to 250 | > 128 | 50 to 250 | 4 to 8 (≈ 7.53 to 15.1 µM) | > 128 | > 128 | 32 to 64 (≈ 60.2 to 120 µM) | 4 to 8 (≈ 7.53 to 15.1 µM) | 4 to 8 (≈ 7.53 to 15.1 µM) | 4 to 8 (≈ 7.53 to 15.1 µM)
2 | O=C(O)c1cccc2c1OB(O)[C@@H](NC(=O)[C@H](NC(=O)c1c[nH]ccc1=O)c1ccc(P(=O)(O)O)cc1)C2 [Example 175, (R)-2-hydroxy-3-((R)-2-(4-oxo-1,4-dihydropyridine-3-carboxamido)-2-(4-phosphonophenyl)acetamido)-3,4-dihydro-2H-benzo[e][1,2]oxaborinine-8-carboxylic acid] | 32 to 64 (≈ 59.1 to 118 µM) | < 1 | 32 to 64 (≈ 59.1 to 118 µM) | < 10 | 32 to 64 (≈ 59.1 to 118 µM) | < 10 | 4 to 8 (≈ 7.39 to 14.8 µM) | 32 to 64 (≈ 59.1 to 118 µM) | 32 to 64 (≈ 59.1 to 118 µM) | 8 to 16 (≈ 14.8 to 29.6 µM) | < 1 | 1 to 2 (≈ 1.85 to 3.7 µM) | 1 to 2 (≈ 1.85 to 3.7 µM)
3 | O=C(O)c1cccc2c1OB(O)[C@@H](NC(=O)[C@H](NC(=O)c1cccn(C(F)F)c1=O)c1ccc(P(=O)(O)O)cc1)C2 (single isomer, unassigned) [Example 191] | 32 to 64 (≈ 54.1 to 108 µM) | < 1 | > 128 | < 10 | > 128 | < 10 | 1 to 2 (≈ 1.69 to 3.38 µM) | > 128 | > 128 | 8 to 16 (≈ 13.5 to 27.1 µM) | < 1 | 1 to 2 (≈ 1.69 to 3.38 µM) | 1 to 2 (≈ 1.69 to 3.38 µM)
4 | CS(=O)(=O)N1CCN(C(=O)NC(C(=O)N[C@H]2Cc3cccc(C(=O)O)c3OB2O)c2ccc(P(=O)(O)O)c(O)c2)C1=O (stereo partly drawn) [Example 17, (3R)-2-hydroxy-3-(2-(3-hydroxy-4-phosphonophenyl)-2-(3-(methylsulfonyl)-2-oxoimidazolidine-1-carboxamido)acetamido)-3,4-dihydro-2H-benzo[e][1,2]oxaborinine-8-carboxylic acid] | 8 to 16 (≈ 12.8 to 25.5 µM) | < 1 | 8 to 16 (≈ 12.8 to 25.5 µM) | < 10 | > 128 | < 10 | < 1 | 32 to 64 (≈ 51.1 to 102 µM) | 32 to 64 (≈ 51.1 to 102 µM) | 2 to 4 (≈ 3.19 to 6.39 µM) | < 1 | < 1 | < 1
5 | CS(=O)(=O)N1CCC[C@@H]1C(=O)N[C@@H](C(=O)N[C@H]1Cc2cccc(C(=O)O)c2OB1O)c1ccc(P(=O)(O)O)cc1 [Example 35, (R)-2-hydroxy-3-((R)-2-((R)-1-(methylsulfonyl)pyrrolidine-2-carboxamido)-2-(4-phosphonophenyl)acetamido)-3,4-dihydro-2H-benzo[e][1,2]oxaborinine-8-carboxylic acid] | > 128 | < 1 | > 128 | < 10 | > 128 | 10 to 50 | 4 to 8 (≈ 6.72 to 13.4 µM) | > 128 | > 128 | 8 to 16 (≈ 13.4 to 26.9 µM) | < 1 | 1 to 2 (≈ 1.68 to 3.36 µM) | 1 to 2 (≈ 1.68 to 3.36 µM)
6 | O=C(O)c1cccc2c1OB(O)[C@@H](NC(=O)[C@@H](NC(=O)N1CCNC1=O)c1ccc(P(=O)(O)O)cc1)C2 [Example 39, (R)-2-hydroxy-3-((S)-2-(2-oxoimidazolidine-1-carboxamido)-2-(4-phosphonophenyl)acetamido)-3,4-dihydro-2H-benzo[e][1,2]oxaborinine-8-carboxylic acid] | > 128 | < 1 | > 128 | 10 to 50 | > 128 | 50 to 250 | 1 to 2 (≈ 1.88 to 3.76 µM) | > 128 | > 128 | 32 to 64 (≈ 60.1 to 120 µM) | < 1 | 1 to 2 (≈ 1.88 to 3.76 µM) | 1 to 2 (≈ 1.88 to 3.76 µM)
7 | CCN1CCN(C(=O)N[C@@H](C(=O)N[C@H]2Cc3ccc(F)c(C(=O)O)c3OB2O)c2ccc(P(=O)(O)O)cc2)C(=O)C1=O (single isomer, unassigned) [Example 10] | 32 to 64 (≈ 52.8 to 106 µM) | < 1 | > 128 | < 10 | > 128 | < 10 | < 1 | 32 to 64 (≈ 52.8 to 106 µM) | > 128 | 8 to 16 (≈ 13.2 to 26.4 µM) | < 1 | < 1 | < 1
8 | CC(C)C(=O)NC(C(=O)N[C@H]1Cc2cccc(C(=O)O)c2OB1O)c1ccc(P(=O)(O)O)cc1 (stereo partly drawn) [Example 28, (3R)-2-hydroxy-3-(2-isobutyramido-2-(4-phosphonophenyl)acetamido)-3,4-dihydro-2H-benzo[e][1,2]oxaborinine-8-carboxylic acid] | > 128 | 4 to 8 (≈ 8.16 to 16.3 µM) | > 128 | 10 to 50 | > 128 | 50 to 250 | 16 to 32 (≈ 32.6 to 65.3 µM) | > 128 | > 128 | 32 to 64 (≈ 65.3 to 131 µM) | 4 to 8 (≈ 8.16 to 16.3 µM) | 16 to 32 (≈ 32.6 to 65.3 µM) | 16 to 32 (≈ 32.6 to 65.3 µM)
9 | CC(=O)N1CCC[C@@H]1C(=O)N[C@H](C(=O)N[C@H]1Cc2cccc(C(=O)O)c2OB1O)c1ccc(P(=O)(O)O)cc1 [Example 33, (3R)-3-(2-((R)-1-acetylpyrrolidine-2-carboxamido)-2-(4-phosphonophenyl)acetamido)-2-hydroxy-3,4-dihydro-2H-benzo[e][1,2]oxaborinine-8-carboxylic acid] | > 128 | 4 to 8 (≈ 7.15 to 14.3 µM) | > 128 | 10 to 50 | > 128 | 50 to 250 | 16 to 32 (≈ 28.6 to 57.2 µM) | > 128 | > 128 | 32 to 64 (≈ 57.2 to 114 µM) | 4 to 8 (≈ 7.15 to 14.3 µM) | 16 to 32 (≈ 28.6 to 57.2 µM) | 16 to 32 (≈ 28.6 to 57.2 µM)
10 | O=C(O)c1cccc2c1OB(O)[C@@H](NC(=O)C(NC(=O)C1CC1)c1ccc(P(=O)(O)O)cc1)C2 (stereo partly drawn) [Example 30, (3R)-3-(2-(cyclopropanecarboxamido)-2-(4-phosphonophenyl)acetamido)-2-hydroxy-3,4-dihydro-2H-benzo[e][1,2]oxaborinine-8-carboxylic acid] | > 128 | 4 to 8 (≈ 8.19 to 16.4 µM) | > 128 | 50 to 250 | > 128 | 50 to 250 | 16 to 32 (≈ 32.8 to 65.5 µM) | > 128 | > 128 | 8 to 16 (≈ 16.4 to 32.8 µM) | 4 to 8 (≈ 8.19 to 16.4 µM) | 16 to 32 (≈ 32.8 to 65.5 µM) | 16 to 32 (≈ 32.8 to 65.5 µM)

From patent publication US20240270762A1, “PENICILLIN-BINDING PROTEIN INHIBITORS” (priority 2021, published 2024)
